Test results as given in patent publication US9233946B2, “Sulfonamide compounds” (KANCERA AB, priority 2010, dated 2016).
Like-named read-outs stand apart in the source and are kept apart here.

Assays:
PFKFB3 = PFKFB3 (Homo sapiens (Human), UniProt Q16875); test: PFKFB3 kinase activity, Method B (ADP-Glo Kinase Assay); type: biochemical
Text: The PFKFB3 (placenta form) and PFKFB4 were produced and purified to homogeneity from E. coli at Biovitrum and at Sprint Bioscience. All other reagents were purchased from commercial sources. Two independent methods have been used for determination of the kinase activity of PFKFB3 (Method A and Method B). Method B has been used for determination of the kinase activity of PFKFB4.
Method B: The kinase activity of the bi-functional enzyme is readily quantified based on the production of ADP and F-2,6-P2 from ATP and F6P. The ADP is detected with a kit, ADP-Glo™ Kinase Assay^(a-e), from Promega. The assay is a luminescent ADP detection assay that measures kinase activity by quantifying the amount of ADP produced during the kinase reaction. The assay is performed in two steps; first, after the kinase reaction, an equal volume of ADP-Glo™ Reagent is added to terminate the kinase reaction and deplete the remaining ATP. Second, the Kinase Detection Reagent is added to simultaneously convert ADP to ATP and allow the newly synthesized ATP to be measured using a luciferase/luciferine reaction. The light generated is measured using a luminescence counter (1450 MicroBeta TriLux).
The assay was performed in white 384-well microtiter plates (OptiPlate, 6007299, PerkinElmer) by consecutive additions of 0.1 μL of a test compound solution (serial diluted in DMSO from compound DMSO stock solution and dispensed by acoustic dispensing from UV-star 384-well plate 7360153, VWR), 5 μL of enzyme solution and 5 μL of a substrate (fructose-6-phosphate (F6P) and adenosine-5′-triphosphate (ATP)) containing solution. […] Four reference dose response curves, one of them being the QC compound, were included in row O1-2, P1-2, and serial diluted as the test compounds. The final concentrations of all reagents in a total assay volume of 10.1 μL per well were: • 50 mM Tris-HCl at pH 8.0 • 10 mM MgCl2 • 5 mM Na2HPO4 at pH 8.0 • 81.48 nM PFKFB3 or 145 nM PFKFB4 • 8 μM ATP • 100 μM F6P (acid treated and then neutralized to remove any contaminating F-2,6-P2; see Van Schaftingen, 1984) • 0.005% Tween-20 • 1 mM dithiothreitol (DTT) • A test compound at various concentrations or controls (final DMSO concentration 0.99%)
Enzyme, compounds and controls were pre-incubated at room temperature for 15 min before the addition of substrate solution. The enzymatic reaction was allowed to proceed for 20 min (PFKFB3) or 40 min (PFKFB4) at room temperature. The reaction was terminated by the addition of 10 μL of ADP-Glo™ Reagent to all wells and the plate was incubated for 40 min at room temperature. After addition of 20 μL Kinase Detection Reagent to all wells the plate was incubated for 30 min at room temperature, followed by measurement in 1450 MicroBeta TriLux. All plates were centrifuged after each addition (room temperature, short spin, 500 RPM, Megafuge 1.0 Heraeus Instruments).
The inhibitory potency or IC50 values of test compounds on the kinase activity of PFKFB3 or PFKFB4 were calculated using a four-parameter model (model 205) in XLfit (IDBS ActivityBase XE Runner).

PANC-1 cells = test: Quantification of F-2,6-P2 in PANC-1 cells; type: cell-based; settings: Homo sapiens, PANC-1; read-out: IC50 based on quantification of F-2,6-P2
Text: (§1) The relative kinase (formation) and phosphatase (degradation) activities of the bi-functional enzymes PFKFB3 and PFKFB4 control the intracellular levels of the regulator F-2,6-P2, which acts as an allosteric activator of glycolysis. The levels of F-2,6-P2 have been determined in three different cancer cell lines (MCF-7, PANC-1 and NUGC-3) using the van Shaftingen assay. The assay protocols described under “Methods for measurement of enzymatic activity of PFKFB3 and PFKFB4, Method A” have been adapted for the measurement of the inhibitory effect of compounds on the kinase activity of the various isoforms of the bifunctional enzyme (endogenously expressed) in the different cell lines. The modifications are described in the protocol below. All reagents were purchased from commercial sources or prepared inhouse.
Cell Line B (PANC-1, Human Pancreatic Carcinoma Cell Line)
• Cells: PANC-1 (ATCC-CRL-1469). Lot. no: 58564651. • Growth medium: Dulbecco's Modified Eagle's Medium, DMEM, ATCC-30-2002 10% FBS, Invitrogen, 10106-169
Cells were seeded at a concentration of 250 000 cells/mL in 100 μL growth medium (25 000 cells/well)
Starvation medium: DMEM/F12 without phenol red and glucose free, SVA, 991373 0.25% FBS, Invitrogen, 10106-169
Induction medium: DMEM/F12 without phenol red and glucose free, SVA, 991373 0.25% FBS, Invitrogen, 10106-169 (same as starvation medium)
Cells were seeded in 96-well Corning Costar tissue culture plates (CLS3595, Sigma-Aldrich) using the concentrations specified above for the three different cell lines A-C and incubated over night at 37° C. and 5% CO2. Row A was left empty. Next day the growth medium was discarded and replaced with 100 μL starvation medium. The plates were incubated for 18 h at 37° C. and 5% CO2. After 18 h of starvation the cells were induced with 100 μL compound or control solutions. Compounds were either tested in two concentrations (50 μM and 10 μM) or in dose response curves starting from 50 μM and the final DMSO concentration in assay plates was 0.5%. Also a dose response curve of a reference inhibitor was included in row H on each plate. All compounds were tested in duplicate plates. Compounds (in 96 well CLS 3365, Sigma-Aldrich) were serial diluted in DMSO from 10 mM compound DMSO stock solutions with Janus (automated liquid handling workstation from PerkinElmer). 5 μL were transferred to a Greiner deep well plate (736-0155, VWR) with 495 μL starvation medium. The final start concentration of compounds in the dilution plate was 100 μM, 1% DMSO. For compounds tested as single points, 10 mM compound solutions were diluted five fold in DMSO to 2 mM, followed by the transfer of 5 μL to separate dilution plates with 495 μL starvation medium. The final concentration of compounds in these dilution plates were 100 or 20 μM, respectively, and final concentration of DMSO was 1%. The plates were incubated at 37° C. and 5% CO2 for 1 h, followed by the addition of 10 μL 20 mM D-glucose in starvation medium. Controls, with and without 1 mM glucose, were included in row B. The final assay volume was 210 μL per well. After 2 h of incubation at 37° C. and 5% CO2, supernatants were discarded and the cells were lysed by the addition of 25 μL 250 mM NaOH. The plates were incubated at 37° C. and 5% CO2 for 5 min followed by an addition of 75 μL MilliQ dH2O. The supernatants were further diluted with 210 μL MilliQ dH2O to a final concentration of 20 mM NaOH. 200 μL were transferred to NUNC 96-well plates (7322661, VWR) and the plates were sealed and stored at −20° C. until analysis.
(§2) The amount of F-2,6-P2 was quantified based on the coupled enzymatic reaction described by Van Schaftingen. If necessary the samples were further diluted in 20 mM NaOH before quantification. Plates stored at −20° C. were thawed and the F-2,6-P2 quantification was initiated by transferring 40 μL from each well of the NUNC plate to the corresponding position in a trans-parent 96-well SpectraPlate-MB (6005649, PerkinElmer). […]

NUGC-3 cells = test: Quantification of F-2,6-P2 in NUGC-3 cells; type: cell-based; settings: Homo sapiens, read-out: IC50 based on quantification of F-2,6-P2
Text: as §1
Cell Line C (NUGC-3, Human Gastric Cancer Cell Line)
Cells were seeded at a concentration of 350 000 cells/mL in 100 μL growth medium (35 000 cells/well) […]
as §2

[1] = system: NUGC3 gastric tumor cell line; test: Inhibition of cancer cell proliferation (Sulphorhodamine B total cellular protein); type: cell-based, human; settings: added at 0 h and again at 48 h, total of 120 h, FIG. 1
Experimental: To assess the antiproliferative response elicited by the compounds of the present invention in different tumour cell lines, total cellular protein in samples was quantified using the Sulphorhodamine B kit, TOX6, (Sigma-Aldrich).
Cells from selected tumour cell lines were cultured at 37° C., 5% CO2, normoxia, in DMEM/F12 medium +10% FBS. Cells were plated at a density of 6-12 000 cells/well, depending on cell-line specific size and growth characteristics, and allowed to attach overnight.
Culture media supernatants were then removed and replaced with either fresh medium or with compounds of the present invention diluted in cell culture medium to indicated concentrations, and to a maximal DMSO concentration of 0.1%. All treatments were in quadruplicate. After indicated incubation times, samples were washed with PBS and the total cellular protein in each sample was quantitated after precipitation with TCA according to the manufacturer's instructions. […] After air drying, bound dye was solubilized in 200 μL 10 mM Tris base, and the absorbance of dye was measured at a wavelength of 565 nm. To quantify growth, samples were collected also at t=0 h, and the resulting absorbance was set to 100%.
In brief, the Example 74 was added at the indicated concentrations at 0 h and again at 48 h. After a total of 120 h, the measured effect on cancer cell proliferation was quantified as described above.

MCF-7 cells = test: Quantification of F-2,6-P2 in MCF-7 cells; type: cell-based; settings: Homo sapiens
Text: as §1
Cell Line A (MCF-7, Human Breast Adenocarcinoma Cell Line)
• Cells: MCF-7(ATCC-HBT22). Lot. no: 58469417. • Growth Medium: • Eagle's Minimum Essential Medium (EMEM), Sigma-Aldrich #M5650, 500 ml • 10% FBS, Invitrogen, 10106-169 • 5 mL 200 mM L-glutamine, Invitrogen 25030024 • 5 mL 100 mM Sodium Pyruvate, Invitrogen 11360039 • 0.5 mL 10 mg/ml Bovine Insulin, Sigma-Aldrich 10516 […]
The amount of F-2,6-P2 was quantified based on the coupled enzymatic reaction described by Van Schaftingen. If necessary the samples were further diluted in 20 mM NaOH before quantification. […]

Sequence of PFKFB3 (Q16875 whole entry): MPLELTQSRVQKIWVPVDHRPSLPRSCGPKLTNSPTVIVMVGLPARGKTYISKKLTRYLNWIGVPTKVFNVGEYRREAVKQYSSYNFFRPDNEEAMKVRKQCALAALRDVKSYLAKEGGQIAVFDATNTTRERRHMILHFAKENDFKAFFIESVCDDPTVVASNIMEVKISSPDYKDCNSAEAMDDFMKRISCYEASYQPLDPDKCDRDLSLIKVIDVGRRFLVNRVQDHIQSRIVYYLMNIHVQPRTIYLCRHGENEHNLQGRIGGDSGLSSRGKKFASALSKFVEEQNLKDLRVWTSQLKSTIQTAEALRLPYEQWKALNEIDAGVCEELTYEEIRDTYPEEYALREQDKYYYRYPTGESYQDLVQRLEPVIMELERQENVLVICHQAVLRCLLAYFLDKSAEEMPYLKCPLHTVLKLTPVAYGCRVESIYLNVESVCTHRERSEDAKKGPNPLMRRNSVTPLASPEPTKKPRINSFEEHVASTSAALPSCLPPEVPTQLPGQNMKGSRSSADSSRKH

IC50 (PFKFB3) [nM] | SMILES | also measured
2390 | O=S(=O)(Nc1cccc(-c2nnn[nH]2)c1)c1cc(Cl)c(Cl)cc1Cl [Example 71, 2,4,5-Trichloro-N-[3-(1H-tetrazol-5-yl)phenyl]benzenesulfonamide] | 
570 | O=S(=O)(Nc1cccc(-c2nnn[nH]2)c1)c1ccc(Cl)c2nonc12 [Example 73, 7-Chloro-N-[3-(1H-tetrazol-5-yl)phenyl]-2,1,3-benzoxadiazole-4-sulfonamide] | 
3100 | O=C(O)c1cccc(NS(=O)(=O)c2cccc(-c3ccccc3)c2)c1 [Example 80, 3-[(Biphenyl-3-ylsulfonyl)amino]benzoic acid] | 
5180 | O=C(O)c1cccc(NS(=O)(=O)c2cc(-c3ccccc3O)c(Cl)s2)c1O [Example 137, 3-({[5-Chloro-4-(2-hydroxyphenyl)thiophen-2-yl]sulfonyl}amino)-2-hydroxybenzoic acid] | 
9030 | Cc1c(S(=O)(=O)Nc2ccc(O)c(C(=O)O)c2)sc2ccc(Cl)cc12 [Example 138, 5-{[(5-Chloro-3-methyl-1-benzothiophen-2-yl)sulfonyl]amino}-2-hydroxybenzoic acid] | 

Second part, the molecule before the results:

SMILES | IC50 (PFKFB3) [nM] | also measured
COC(=O)c1cccc(NS(=O)(=O)c2sc3ccc(Cl)cc3c2C)c1 [Example 74, Methyl 3-{[(5-chloro-3-methyl-1-benzothien-2-yl)sulfonyl]amino}benzoate] |  | IC50 (PANC-1 cells): 3.7 µM; IC50 (NUGC-3 cells): 4 µM; effect on cell proliferation [1]: growth-inhibitory effect
O=S(=O)(Nc1cccc(-c2nnn[nH]2)c1)c1ccc(-c2ccc(Cl)c(Cl)c2)cc1 [Example 86, 3′,4′-Dichloro-N-[3-(1H-tetrazol-5-yl)phenyl]biphenyl-4-sulfonamide] | 2800 | 
O=S(=O)(Nc1cccc(-c2nnn[nH]2)c1)c1ccc(-c2cccc(C(F)(F)F)c2)s1 [Example 99, N-[3-(1H-Tetrazol-5-yl)phenyl]-5-[3-(trifluoromethyl)phenyl]thiophene-2-sulfonamide] | 1420 | 
COC(=O)c1cc(NS(=O)(=O)c2sc3ccc(Cl)cc3c2C)ccc1O [Example 140, Methyl 5-{[(5-chloro-3-methyl-1-benzothiophen-2-yl)sulfonyl]amino}-2-hydroxybenzoate] |  | IC50 (MCF-7 cells; MCF7, cells seeded in the starvation medium containing 25 mM glucose, 25 000 cells/well, read-out: IC50 based on quantification of F-2,6-P2): 1200 nM
Cc1c(S(=O)(=O)Nc2cccc(-c3cnco3)c2)sc2ccc(Cl)cc12 [Example 141, 5-Chloro-3-methyl-N-[3-(1,3-oxazol-5-yl)phenyl]-1-benzothiophene-2-sulfonamide] |  | IC50 (MCF-7 cells; MCF7, read-out: IC50 based on quantification of F-2,6-P2): 3000 nM
